Reference: patent US12459899B2, “Isoquinolinone derivatives, method for preparing the same, and pharmaceutical composition for preventing or treating poly(ADP-ribose) polymerase-1-related diseases, comprising the same as active ingredient” (DIGMBIO. INC., priority 2019, dated 2025)
pIC50: −log10 of the molar value. Where a name gives a salt, the structure may show the parent alone.

target: PARP-1 (poly[ADP-ribose] polymerase 1) enzyme (Homo sapiens (Human), UniProt P09874); experiment: PARP-1 (poly[ADP-ribose] polymerase 1) enzyme inhibitory ability, Trevigen assay kit; assay type: biochemical; conditions: 1 nM compound; read-out: PAR P-1 Inhibitory ability at 1 nM
Sequence (P09874 whole entry): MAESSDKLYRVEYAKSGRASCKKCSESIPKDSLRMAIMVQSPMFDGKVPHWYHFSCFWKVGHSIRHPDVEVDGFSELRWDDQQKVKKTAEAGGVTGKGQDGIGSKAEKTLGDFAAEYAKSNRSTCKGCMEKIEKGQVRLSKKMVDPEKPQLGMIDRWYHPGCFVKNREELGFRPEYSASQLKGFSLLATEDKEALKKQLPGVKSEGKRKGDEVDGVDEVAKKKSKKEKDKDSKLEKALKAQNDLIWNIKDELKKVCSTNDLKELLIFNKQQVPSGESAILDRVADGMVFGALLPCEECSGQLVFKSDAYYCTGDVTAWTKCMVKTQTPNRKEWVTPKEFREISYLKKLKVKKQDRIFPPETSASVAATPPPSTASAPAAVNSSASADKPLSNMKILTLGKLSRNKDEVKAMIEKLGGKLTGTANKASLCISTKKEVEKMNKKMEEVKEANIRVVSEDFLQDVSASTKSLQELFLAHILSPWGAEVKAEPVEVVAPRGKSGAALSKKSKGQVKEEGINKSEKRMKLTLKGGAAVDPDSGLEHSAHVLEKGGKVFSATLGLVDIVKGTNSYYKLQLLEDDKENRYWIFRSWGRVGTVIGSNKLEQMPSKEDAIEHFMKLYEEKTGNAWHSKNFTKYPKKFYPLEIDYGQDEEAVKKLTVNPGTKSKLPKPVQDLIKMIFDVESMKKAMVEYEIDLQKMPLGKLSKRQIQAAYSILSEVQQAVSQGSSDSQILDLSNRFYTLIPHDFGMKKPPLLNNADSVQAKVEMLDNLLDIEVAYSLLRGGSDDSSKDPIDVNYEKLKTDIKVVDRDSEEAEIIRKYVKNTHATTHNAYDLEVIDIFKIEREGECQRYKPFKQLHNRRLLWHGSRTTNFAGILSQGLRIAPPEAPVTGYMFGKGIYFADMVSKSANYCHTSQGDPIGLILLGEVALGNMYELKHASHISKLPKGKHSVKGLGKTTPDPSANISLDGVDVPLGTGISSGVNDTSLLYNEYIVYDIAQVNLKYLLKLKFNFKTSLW
Method: In order to evaluate the PARP-1 (poly[ADP-ribose] polymerase 1) enzyme inhibitory ability of the compounds according to the present invention, an experiment was conducted as follows.
Specifically, in order to evaluate the PARP-1 (poly[ADP-ribose] polymerase 1) enzyme inhibitory ability of the compounds of Examples 1 to 276 according to the present invention, the PARP-1 (poly[ADP-ribose] polymerase 1) activity was investigated in the following manner using an assay kit purchased from Trevigen, Inc. (Catalog number: 4677-096-K). 50 μL of 1×PARP buffer (provided by Trevigen's kit) was dispensed into a 96-well plate coated with histones per each well, and then rehydrated for 30 minutes. After removing the 1×PARP buffer present in the well, PARP-1 (poly[ADP-ribose] polymerase 1) enzyme (0.5 unit/well) and 1 μM concentration or various concentrations of the compounds of Example 1 to 276 were added at room temperature and reacted for 10 minutes. Thereafter, each well was treated with 25 μL of 1×PARP cocktail (biotinylated NAD, activated DNA, provided by Trevigen's kit), and then reacted at room temperature for 1 hour. After the reaction was completed, each well was washed twice with PBS (7.5 mM Na2HPO4, 2.5 mM NaH2PO4, 145 mM NaCl) containing 0.1% triton X-100, and washed twice with PBS. Then, 50 μL of strep-HRP (streptavidin-linked peroxidase) was added and reacted at room temperature for 1 hour, and then washed twice with PBS containing 0.1% triton X-100, and washed twice with PBS. After removing all PBS, 50 μL of TACS-sapphire, a substrate, was added, and reacted at room temperature for 15 minutes while blocking the light. After the reaction was terminated by treatment with 50 μL of 5% phosphoric acid to each well, the absorbance was measured at 450 nm using a microplate reader Victor3 from PerkinElmer, Inc. to quantify the value.

Row | SMILES | inhibition at 0.001 µM
1 | Cc1cc(F)cc2c(=O)[nH]c(CCC(=O)N3C4CCC3CN(c3ccc(C#N)cn3)C4)cc12 [Example 214] | < 50%
2 | O=c1[nH]c(CCCN2CC=C(c3ccc(F)cc3)CC2)cc2cccc(F)c12 [Example 42, 8-fluoro-3-(3-(4-(4-fluorophenyl)-3,6-dihydropyridin-1(2H)-yl)propyl)isoquinolin-1(2H)-one] | 50 to 80%
3 | Cc1cc(F)cc2c(=O)[nH]c(CCC(=O)N3CCN(C(=O)C4CCCO4)CC3)cc12 (stereo not shown) [Example 193, 7-fluoro-5-methyl-3-(3-oxo-3-(4-(tetrahydrofuran-2-carbonyl)piperazin-1-yl)propyl)isoquinolin-1(2H)-one] | < 50%
4 | CN(c1ccc(C#N)cc1)C1CCN(C(=O)CCc2cc3cccc(F)c3c(=O)[nH]2)CC1 [Example 257, 4-((1-(3-(8-fluoro-1-oxo-1,2-dihydroisoquinolin-3-yl)propanoyl)piperidin-4-yl)(methyl)amino)benzonitrile] | < 50%
5 | O=C(CCc1cc2ccc(F)cc2c(=O)[nH]1)N1CCN(c2ccc(C(F)(F)F)cc2)CC1 [Example 118, 7-fluoro-3-(3-oxo-3-(4-(4-(trifluoromethyl)phenyl)piperazin-1-yl)propyl)isoquinolin-1(2H)-one] | < 50%
6 | O=C(CCc1cc2ccc(F)cc2c(=O)[nH]1)N1CC[C@H](c2ccc(F)cc2)C1 [Example 116, (R)-7-fluoro-3-(3-(3-(4-fluorophenyl)pyrrolidin-1-yl)-3-oxopropyl)isoquinolin-1(2H)-one] | < 50%
7 | O=C(CCc1cc2ccc(F)cc2c(=O)[nH]1)N1CC=C(c2cccc(F)c2)CC1 [Example 115, 7-fluoro-3-(3-(4-(3-fluorophenyl)-3,6-dihydropyridin-1(2H)-yl)-3-oxopropyl)isoquinolin-1(2H)-one] | < 50%
8 | O=c1[nH]c(CCCN2CC=C(c3ccc(F)cn3)CC2)cc2cccc(F)c12 [Example 44, 8-fluoro-3-(3-(5-fluoro-3′,6′-dihydro-[2,4′-bipyridine]-1′(2′H)-yl)propyl)isoquinolin-1(2H)-one] | < 50%
9 | N#Cc1ccc(N2CC3CCC(C2)N3CCCc2cc3cccc(F)c3c(=O)[nH]2)nc1 [Example 203, 6-(8-(3-(8-fluoro-1-oxo-1,2-dihydroisoquinolin-3-yl)propyl)3,8-diazabicyclo[3.2.1]octan-3-yl)nicotinonitrile] | < 50%
10 | O=c1[nH]c(CCCN2CC=C(c3ccc(F)cc3)CC2)cc2ncccc12 [Example 236, 7-(3-(4-(4-fluorophenyl)-3,6-dihydropyridin-1(2H)-yl)propyl)-1,6-naphthyridin-5(6H)-one] | < 50%
11 | O=C(CCc1cc2cccc(F)c2c(=O)[nH]1)N1CC=C(c2ccc(F)nc2)CC1 [Example 85, 8-fluoro-3-(3-(6-fluoro-3′,6′-dihydro-[3,4′-bipyridine]-1′(2′H)-yl)-3-oxopropyl)isoquinolin-1(2H)-one] | < 50%
12 | Cc1cc(F)cc2c(=O)[nH]c(CCC(=O)N3CC=C(c4cc(F)cc(C#N)c4)CC3)cc12 [Example 163, 3-fluoro-5-(1-(3-(7-fluoro-5-methyl-1-oxo-1,2-dihydroisoquinolin-3-yl)propanoyl)-1,2,3,6-tetrahydropyridin-4-yl)benzonitrile] | < 50%
13 | Cc1ccc(F)c2c(=O)[nH]c(CCCN3C4CCC3CN(c3ccc(C#N)nc3)C4)cc12 [Example 200, 5-(8-(3-(8-fluoro-5-methyl-1-oxo-1,2-dihydroisoquinolin-3-yl)propyl)-3,8-diazabicyclo[3.2.1]octan-3-yl)picolinonitrile] | 50 to 80%
14 | Cc1ccc(F)c2c(=O)[nH]c(CCC(=O)N3CCN(C(=O)C4CCCCC4)CC3)cc12 [Example 171, 3-(3-(4-(cyclohexanecarbonyl)piperazin-1-yl)-3-oxopropyl)-8-fluoro-5-methylisoquinolin-1(2H)-one] | < 50%
15 | N#Cc1ccc(N2CC3CCC(C2)N3CCCc2cc3ncccc3c(=O)[nH]2)cc1 [Example 225, 4-(8-(3-(5-oxo-5,6-dihydro-1,6-naphthyridin-7-yl)propyl)-3,8-diazabicyclo[3.2.1]octan-3-yl)benzonitrile] | > 80%
16 | N#Cc1ccc(N2CCN(C(=O)CCc3cc4cccc(F)c4c(=O)[nH]3)CC2)cn1 [Example 70, 5-(4-(3-(8-fluoro-1-oxo-1,2-dihydroisoquinolin-3-yl)propanoyl)piperazin-1-yl)picolinonitrile] | < 50%
17 | N#Cc1ccc(N2CC3CCC(C2)N3C(=O)CCc2cc3ccc(F)cc3c(=O)[nH]2)nc1 [Example 220, 6-(8-(3-(7-fluoro-1-oxo-1,2-dihydroisoquinolin-3-yl)propanoyl)3,8-diazabicyclo[3.2.1]octan-3-yl)nicotinonitrile] | < 50%
18 | Cc1ccc(F)c2c(=O)[nH]c(CCC(=O)N3C4CCC3CN(c3ccc(F)cn3)C4)cc12 [Example 212, 8-fluoro-3-(3-(3-(5-fluoropyridin-2-yl)-3,8-diazabicyclo[3.2.1]octan-8-yl)-3-oxopropyl)-5-methylisoquinolin-1(2H)-one] | < 50%

Now from value to compound:

Row | inhibition at 0.001 µM | SMILES
19 | < 50% | Cc1ccc(F)c2c(=O)[nH]c(CCC(=O)N3CC=C(c4ccc(C#N)c(F)c4)CC3)cc12 [Example 141, 2-fluoro-4-(1-(3-(8-fluoro-5-methyl-1-oxo-1,2-dihydroisoquinolin-3-yl)propanoyl)-1,2,3,6-tetrahydropyridin-4-yl)benzonitrile]
20 | < 50% | Cc1ccc(F)c2c(=O)[nH]c(CCCN3CCN(c4ncccn4)CC3)cc12 [Example 25, 8-fluoro-5-methyl-3-(3-(4-(pyrimidin-2-yl)piperazin-1-yl)propyl)isoquinolin-1(2H)-one]
21 | < 50% | O=C(CCc1cc2ccc(F)cc2c(=O)[nH]1)N1CCN(c2ccc(F)cc2F)CC1 [Example 106, 3-(3-(4-(2,4-difluorophenyl)piperazin-1-yl)-3-oxopropyl)-7-fluoroisoquinolin-1(2H)-one]
22 | < 50% | Cc1cc(F)cc2c(=O)[nH]c(CCCN3CCN(c4ccc(C#N)nc4)CC3)cc12 [Example 35, 5-(4-(3-(7-fluoro-5-methyl-1-oxo-1,2-dihydroisoquinolin-3-yl)propyl)piperazin-1-yl)picolinonitrile]
23 | < 50% | N#Cc1ccc(F)c(N2CCN(C(=O)CCc3cc4cccc(F)c4c(=O)[nH]3)CC2)c1 [Example 79, 4-fluoro-3-(4-(3-(8-fluoro-1-oxo-1,2-dihydroisoquinolin-3-yl)propanoyl)piperazin-1-yl)benzonitrile]
24 | < 50% | Cc1ccc(F)c2c(=O)[nH]c(CCC(=O)N3CC=C(c4ccc(F)nc4)CC3)cc12 [Example 129]
25 | < 50% | Cc1ccc(F)c2c(=O)[nH]c(CCC(=O)N3CCN(c4ccc(C#N)cn4)CC3)cc12 [Example 123, 6-(4-(3-(8-fluoro-5-methyl-1-oxo-1,2-dihydroisoquinolin-3-yl)propanoyl)piperazin-1-yl)nicotinonitrile]
26 | 50 to 80% | N#Cc1ccc(N2CCN(CCCc3cc4ccc(F)cc4c(=O)[nH]3)CC2)cn1 [Example 10, 5-(4-(3-(7-fluoro-1-oxo-1,2-dihydroisoquinolin-3-yl)propyl)piperazin-1-yl)picolinonitrile]
27 | < 50% | Cc1ccc(F)c2c(=O)[nH]c(CCCN3CCN(C(=O)c4cccc(F)c4)CC3)cc12 [Example 65, 8-fluoro-3-(3-(4-(3-fluorobenzoyl)piperazin-1-yl)propyl)-5-methylisoquinolin-1(2H)-one]
28 | < 50% | Cc1cnc(N2CCN(CCCc3cc4c(C)ccc(F)c4c(=O)[nH]3)CC2)s1 [Example 30, 8-fluoro-5-methyl-3-(3-(4-(5-methylthiazole-2-yl)piperazin-1-yl)propyl)isoquinolin-1(2H)-one]
29 | < 50% | Cc1ccc(F)c2c(=O)[nH]c(CCC(=O)N3CCC(Oc4ccc(C#N)cc4)CC3)cc12 [Example 261, 4-((1-(3-(8-fluoro-5-methyl-1-oxo-1,2-dihydroisoquinolin-3-yl)propanoyl)piperidin-4-yl)oxy)benzonitrile]
30 | < 50% | Cc1ccc(F)c2c(=O)[nH]c(CCC(=O)N3CC=C(c4ccc(F)cc4)CC3)cc12 [Example 125, 8-fluoro-3-(3-(4-(4-fluorophenyl)-3,6-dihydropyridin-1(2H)-yl)-3-oxopropyl)-5-methylisoquinolin-1(2H)-one]
31 | < 50% | O=c1[nH]c(CCCN2CCN(c3cccc(F)c3)CC2)cc2ncccc12 [Example 224, 7-(3-(4-(3-fluorophenyl)piperazin-1-yl)propyl)-1,6-naphthyridin-5(6H)-one]
32 | < 50% | Cc1ccc(F)c2c(=O)[nH]c(CCC(=O)N3CCN(C(=O)C4CCCN4)CC3)cc12 (stereo not shown) [Example 196, hydrochloride]

same assay, conditions: PARP-1 enzyme activity

Row | SMILES | pIC50
33 | Cc1ccc(F)c2c(=O)[nH]c(CCCN3C4CCC3CN(c3ccc(C#N)nc3)C4)cc12 [Example 200, 5-(8-(3-(8-fluoro-5-methyl-1-oxo-1,2-dihydroisoquinolin-3-yl)propyl)-3,8-diazabicyclo[3.2.1]octan-3-yl)picolinonitrile] | 8.91
34 | O=c1[nH]c(CCCN2CCN(c3ccc(F)cc3)CC2)cc2ccc(F)cc12 [Example 15, 7-fluoro-3-(3-(4-(4-fluorophenyl)piperazin-1-yl)propyl)isoquinolin-1(2H)-one] | 8.40
